This assay deals with erythrocytes infected with 3D7 trophozoites. In kind it is cell-based, Plasmodium falciparum. To be noted: sheet Ratio; for Ratio of metabolite abundance, Exp1_1hr: Exp1, 1hr; for Ratio of metabolite abundance, Exp1_3hr: Exp1, 3hr; for Ratio of metabolite abundance, Exp1_6hr: Exp1, 6hr; for Ratio of metabolite abundance, Exp2_1hr: Exp2, 1hr; for Ratio of metabolite abundance, Exp2_3hr: Exp2, 3hr; for Ratio of metabolite abundance, Exp2_6hr: Exp2, 6hr; for Ratio of metabolite abundance, Exp3_1hr: Exp3, 1hr; for Ratio of metabolite abundance, Exp3_3hr: Exp3, 3hr; for Ratio of metabolite abundance, Exp3_6hr: Exp3, 6hr.

“And” between values parts separate entries of the source, which are not always exact repeats. Equal entries are not always repeated. Peptide text beside a SMILES is read from it.

As for `O=C(O)CCC(O)C(=O)O` (stereo not drawn) [2-Hydroxyglutarate], the “Ratio of metabolite abundance, Exp1_1hr” value is on record as 0.7468; the “Ratio of metabolite abundance, Exp1_3hr” value worked out at 0.6009; the “Ratio of metabolite abundance, Exp1_6hr” value is reported as 0.699; the “Ratio of metabolite abundance, Exp2_1hr” value was determined as 0.8783. In addition, the “Ratio of metabolite abundance, Exp2_3hr” value is reported as 0.8007; the “Ratio of metabolite abundance, Exp2_6hr” value is listed as 0.7015; the “Ratio of metabolite abundance, Exp3_1hr” value was found to be 0.9193; the “Ratio of metabolite abundance, Exp3_3hr” value amounted to 0.5841. Besides, the “Ratio of metabolite abundance, Exp3_6hr” value stood at 0.9208.
As to `O=C(O)CCC(=O)C(=O)O` [2-Ketoglutarate], the “Ratio of metabolite abundance, Exp1_1hr” value is recorded as 0.5638; the “Ratio of metabolite abundance, Exp1_3hr” value came out at 0.5076; the “Ratio of metabolite abundance, Exp1_6hr” value amounted to 0.5229; the “Ratio of metabolite abundance, Exp2_1hr” value came to 1.061. The “Ratio of metabolite abundance, Exp2_3hr” value worked out at 0.5178; the “Ratio of metabolite abundance, Exp2_6hr” value is on record as 0.7675; the “Ratio of metabolite abundance, Exp3_1hr” value was found to be 0.6752; the “Ratio of metabolite abundance, Exp3_3hr” value is 0.6868. Also, the “Ratio of metabolite abundance, Exp3_6hr” value was found to be 0.9353.
Consider `O=C(O)[C@H](O)COP(=O)(O)O` [3-Phosho-D-glycerate], for which the “Ratio of metabolite abundance, Exp1_1hr” value is given as 0.9975; the “Ratio of metabolite abundance, Exp1_3hr” value is 1.1161; the “Ratio of metabolite abundance, Exp1_6hr” value was determined as 1.013; the “Ratio of metabolite abundance, Exp2_1hr” value was 1.017. Also, the “Ratio of metabolite abundance, Exp2_3hr” value came to 0.9815; the “Ratio of metabolite abundance, Exp2_6hr” value was 1.001; the “Ratio of metabolite abundance, Exp3_1hr” value was found to be 0.9949; the “Ratio of metabolite abundance, Exp3_3hr” value came out at 1.065. Besides, the “Ratio of metabolite abundance, Exp3_6hr” value is reported as 1.039.
Regarding `N[C@@H](COP(=O)(O)O)C(=O)O` [3-Phospho-serine], the “Ratio of metabolite abundance, Exp1_1hr” value is 0.7768; the “Ratio of metabolite abundance, Exp1_3hr” value worked out at 0.7478; the “Ratio of metabolite abundance, Exp1_6hr” value is 0.6073; the “Ratio of metabolite abundance, Exp2_1hr” value stood at 1.092. The “Ratio of metabolite abundance, Exp2_3hr” value is listed as 0.7496; the “Ratio of metabolite abundance, Exp2_6hr” value is reported as 0.7836; the “Ratio of metabolite abundance, Exp3_1hr” value worked out at 0.6617; the “Ratio of metabolite abundance, Exp3_3hr” value amounted to 0.7708. For the same compound, the “Ratio of metabolite abundance, Exp3_6hr” value amounted to 0.5594.
For the compound `NCCCC(=O)O` [4-Aminobutanoate], the “Ratio of metabolite abundance, Exp1_1hr” value is reported as 3.908; the “Ratio of metabolite abundance, Exp1_3hr” value was 0.7769; the “Ratio of metabolite abundance, Exp1_6hr” value stood at 1.748; the “Ratio of metabolite abundance, Exp2_1hr” value is listed as 3.257. The “Ratio of metabolite abundance, Exp2_3hr” value is 2.342; the “Ratio of metabolite abundance, Exp2_6hr” value is given as 1.761; the “Ratio of metabolite abundance, Exp3_1hr” value is reported as 0.9389; the “Ratio of metabolite abundance, Exp3_3hr” value is recorded as 3.211. Moreover, the “Ratio of metabolite abundance, Exp3_6hr” value turned out to be 3.145.
For `O=P(O)(O)OC[C@H]1OC(OP(=O)(O)OP(=O)(O)O)[C@H](O)[C@@H]1O` (stereo partly drawn) [5-Phosphoribosyl-1-pyrophosphate], the “Ratio of metabolite abundance, Exp1_1hr” value was 1.134; the “Ratio of metabolite abundance, Exp1_3hr” value is reported as 1.199; the “Ratio of metabolite abundance, Exp1_6hr” value is listed as 1.224; the “Ratio of metabolite abundance, Exp2_1hr” value is 2.035. Moreover, the “Ratio of metabolite abundance, Exp2_3hr” value was 1.2624; the “Ratio of metabolite abundance, Exp2_6hr” value is listed as 1.3078; the “Ratio of metabolite abundance, Exp3_1hr” value is listed as 0.8985; the “Ratio of metabolite abundance, Exp3_3hr” value worked out at 1.899. Besides, the “Ratio of metabolite abundance, Exp3_6hr” value came to 1.985.
As for `O=C(O)[C@H](O)[C@@H](O)[C@H](O)[C@H](O)COP(=O)(O)O` [6-Phospho-D-gluconate], the “Ratio of metabolite abundance, Exp1_1hr” value is 1.0502 and 0.8295; the “Ratio of metabolite abundance, Exp1_3hr” value was 0.8826 and 0.6724; the “Ratio of metabolite abundance, Exp1_6hr” value is 0.7609 and 0.6355; the “Ratio of metabolite abundance, Exp2_1hr” value was 0.8989 and 0.6621. Besides, the “Ratio of metabolite abundance, Exp2_3hr” value is 0.8049 and 0.5841; the “Ratio of metabolite abundance, Exp2_6hr” value was 0.8315 and 0.5366; the “Ratio of metabolite abundance, Exp3_1hr” value is 0.955 and 0.8159; the “Ratio of metabolite abundance, Exp3_3hr” value was 0.8757 and 0.6904. Besides, the “Ratio of metabolite abundance, Exp3_6hr” value is 0.7181 and 0.6347.
For `Nc1ncnc2c1ncn2[C@@H]1O[C@H](COP(=O)(O)OP(=O)(O)O)[C@@H](O)[C@H]1O` [ADP], the “Ratio of metabolite abundance, Exp1_1hr” value was found to be 0.7745; the “Ratio of metabolite abundance, Exp1_3hr” value was 0.4477; the “Ratio of metabolite abundance, Exp1_6hr” value was 0.5852; the “Ratio of metabolite abundance, Exp2_1hr” value was found to be 1.167. Also, the “Ratio of metabolite abundance, Exp2_3hr” value is reported as 0.7455; the “Ratio of metabolite abundance, Exp2_6hr” value was found to be 0.8713; the “Ratio of metabolite abundance, Exp3_1hr” value worked out at 0.9108; the “Ratio of metabolite abundance, Exp3_3hr” value came to 0.6751. For the same compound, the “Ratio of metabolite abundance, Exp3_6hr” value worked out at 1.045.
Regarding `Nc1ncnc2c1ncn2[C@@H]1O[C@H](COP(=O)(O)O)[C@@H](O)[C@H]1O` [AMP], the “Ratio of metabolite abundance, Exp1_1hr” value was determined as 0.6651; the “Ratio of metabolite abundance, Exp1_3hr” value turned out to be 0.4095; the “Ratio of metabolite abundance, Exp1_6hr” value was 0.7534; the “Ratio of metabolite abundance, Exp2_1hr” value amounted to 1.745. Moreover, the “Ratio of metabolite abundance, Exp2_3hr” value was 0.5002; the “Ratio of metabolite abundance, Exp2_6hr” value amounted to 0.6205; the “Ratio of metabolite abundance, Exp3_1hr” value was found to be 1.254; the “Ratio of metabolite abundance, Exp3_3hr” value amounted to 1.491. The “Ratio of metabolite abundance, Exp3_6hr” value was 1.967.
As for `CC(C)C[C@H](NC(=O)[C@@H](NC(=O)[C@H](C)N)[C@@H](C)O)C(=O)N[C@@H](CO)C(=O)O` [ATLS] (H-ATLS-OH), the “Ratio of metabolite abundance, Exp1_1hr” value is 1.05; the “Ratio of metabolite abundance, Exp1_3hr” value is recorded as 0.6654; the “Ratio of metabolite abundance, Exp1_6hr” value worked out at 0.8386; the “Ratio of metabolite abundance, Exp2_1hr” value was found to be 1.031. For the same compound, the “Ratio of metabolite abundance, Exp2_3hr” value is listed as 0.8993; the “Ratio of metabolite abundance, Exp2_6hr” value is 0.9335; the “Ratio of metabolite abundance, Exp3_1hr” value was determined as 1.05; the “Ratio of metabolite abundance, Exp3_3hr” value is reported as 1.026. Moreover, the “Ratio of metabolite abundance, Exp3_6hr” value is 0.9156.
`Nc1ncnc2c1ncn2[C@@H]1O[C@H](COP(=O)(O)OP(=O)(O)OP(=O)(O)O)[C@@H](O)[C@H]1O` [ATP]: the “Ratio of metabolite abundance, Exp1_1hr” value was determined as 0.9749; the “Ratio of metabolite abundance, Exp1_3hr” value came out at 0.855; the “Ratio of metabolite abundance, Exp1_6hr” value worked out at 0.8179; the “Ratio of metabolite abundance, Exp2_1hr” value was 0.9538. Also, the “Ratio of metabolite abundance, Exp2_3hr” value was determined as 0.8859; the “Ratio of metabolite abundance, Exp2_6hr” value is given as 0.784; the “Ratio of metabolite abundance, Exp3_1hr” value was determined as 0.9549; the “Ratio of metabolite abundance, Exp3_3hr” value is on record as 0.8395. Further, the “Ratio of metabolite abundance, Exp3_6hr” value is 0.7365.
With `CC(=O)SCCNC(=O)CCNC(=O)[C@H](O)C(C)(C)COP(=O)(O)OP(=O)(O)OC[C@H]1O[C@@H](n2cnc3c(N)ncnc32)[C@H](O)[C@@H]1OP(=O)(O)O` [Acetyl-CoA], the “Ratio of metabolite abundance, Exp1_1hr” value is listed as 0.7257; the “Ratio of metabolite abundance, Exp1_3hr” value is recorded as 0.4303; the “Ratio of metabolite abundance, Exp1_6hr” value came out at 0.3828; the “Ratio of metabolite abundance, Exp2_1hr” value was 0.6969. Further, the “Ratio of metabolite abundance, Exp2_3hr” value amounted to 0.7538; the “Ratio of metabolite abundance, Exp2_6hr” value stood at 0.6508; the “Ratio of metabolite abundance, Exp3_1hr” value was 0.7524; the “Ratio of metabolite abundance, Exp3_3hr” value is recorded as 0.685. Moreover, the “Ratio of metabolite abundance, Exp3_6hr” value is 0.5138.
As for `CC(=O)N[C@@H](C)C(=O)O` [Acetyl-L-alanine], the “Ratio of metabolite abundance, Exp1_1hr” value was found to be 1.844; the “Ratio of metabolite abundance, Exp1_3hr” value worked out at 0.6703; the “Ratio of metabolite abundance, Exp1_6hr” value is given as 0.7764; the “Ratio of metabolite abundance, Exp2_1hr” value is 1.062. In addition, the “Ratio of metabolite abundance, Exp2_3hr” value is given as 0.5861; the “Ratio of metabolite abundance, Exp2_6hr” value was found to be 0.7816; the “Ratio of metabolite abundance, Exp3_1hr” value worked out at 0.7593; the “Ratio of metabolite abundance, Exp3_3hr” value worked out at 1.204. The “Ratio of metabolite abundance, Exp3_6hr” value was found to be 0.7219.
Turning to `NCCOP(=O)(O)OP(=O)(O)OC[C@H]1O[C@@H](n2ccc(N)nc2=O)[C@H](O)[C@@H]1O` [CDP-ethanolamine], the “Ratio of metabolite abundance, Exp1_1hr” value is recorded as 1.165; the “Ratio of metabolite abundance, Exp1_3hr” value is recorded as 0.8992; the “Ratio of metabolite abundance, Exp1_6hr” value came to 0.8287; the “Ratio of metabolite abundance, Exp2_1hr” value stood at 1.33. The “Ratio of metabolite abundance, Exp2_3hr” value is recorded as 1.135; the “Ratio of metabolite abundance, Exp2_6hr” value was 1.07; the “Ratio of metabolite abundance, Exp3_1hr” value is 1.146; the “Ratio of metabolite abundance, Exp3_3hr” value is 1.029. Moreover, the “Ratio of metabolite abundance, Exp3_6hr” value is 0.9178.
For `Nc1ccn([C@@H]2O[C@H](COP(=O)(O)OP(=O)(O)O)[C@@H](O)[C@H]2O)c(=O)n1` [CDP], the “Ratio of metabolite abundance, Exp1_1hr” value was 1.235; the “Ratio of metabolite abundance, Exp1_3hr” value turned out to be 0.632; the “Ratio of metabolite abundance, Exp1_6hr” value worked out at 0.653; the “Ratio of metabolite abundance, Exp2_1hr” value was found to be 1.081. Besides, the “Ratio of metabolite abundance, Exp2_3hr” value came to 0.7109; the “Ratio of metabolite abundance, Exp2_6hr” value amounted to 1.157; the “Ratio of metabolite abundance, Exp3_1hr” value came to 0.7322; the “Ratio of metabolite abundance, Exp3_3hr” value amounted to 0.673. Besides, the “Ratio of metabolite abundance, Exp3_6hr” value is recorded as 0.7355.
In the case of `Nc1ccn([C@@H]2O[C@H](COP(=O)(O)O)[C@@H](O)[C@H]2O)c(=O)n1` [CMP], the “Ratio of metabolite abundance, Exp1_1hr” value came to 1.383; the “Ratio of metabolite abundance, Exp1_3hr” value was found to be 1.267; the “Ratio of metabolite abundance, Exp1_6hr” value worked out at 1.102; the “Ratio of metabolite abundance, Exp2_1hr” value came to 0.8705. Also, the “Ratio of metabolite abundance, Exp2_3hr” value came out at 0.5442; the “Ratio of metabolite abundance, Exp2_6hr” value is recorded as 1.311; the “Ratio of metabolite abundance, Exp3_1hr” value came out at 1.179; the “Ratio of metabolite abundance, Exp3_3hr” value is listed as 1.206. In addition, the “Ratio of metabolite abundance, Exp3_6hr” value is 1.249.

The values above are taken from PMC5298231, “The Malaria Parasite's Lactate Transporter PfFNT Is the Target of Antiplasmodial Compounds Identified in Whole Cell Phenotypic Screens” (PLoS Pathogens, 2017).
